Measurements from ChEMBL document CHEMBL1154194, “Glucose-containing flavones--their synthesis and antioxidant and neuroprotective activities” (Bioorg Med Chem Lett, 2009).

Columns and labels:
Liver = experiment: Antioxidant activity in rat liver homogenate assessed as inhibition of iron-ascorbic acid mix-induced lipid peroxidation by TBARS assay; format: functional, tissue-based
[1] = Antioxidant activity assessed as inhibition of xanthine/xanthine oxidase system-induced superoxide anion radical scavenging activity after 20 mins; format: functional
[2] = tested on: Radical scavenging activity; experiment: Antioxidant activity assessed as DPPH radical scavenging activity after 30 mins; format: functional
[3] = (§1) Neuroprotective activity against H2O2-induced neuronal damage in Sprague-Dawley rat cerebral cortical cells after 20 to 24 hrs by MTT assay; format: functional
Rattus norvegicus = species: Rattus norvegicus; experiment: as §1; format: functional

IC50 (Liver) [µM]	IC50 [1] [µM]	IC50 [2] [µM]	SMILES	IC50 [3] [µM]	Activity (Rattus norvegicus)
43.2	10.2	16.9	COc1c(-c2ccc(O)c(O)c2)oc2cc(OC3O[C@@H](CO)[C@H](O)[C@@H](O)[C@@H]3O)cc(O)c2c1=O (stereo partly specified)	30.7	Dose-dependent effect
66.7	32.9	19.7	COc1c(-c2ccc(O)c(O)c2)oc2cc(OCC(=O)OC[C@@H]3OC(O)[C@@H](O)[C@H](O)[C@H]3O)cc(O)c2c1=O (stereo partly specified)	5.34	Dose-dependent effect
47.9	6.22	16.7	O=C(COc1cc(O)c2c(=O)cc(-c3ccc(O)c(O)c3)oc2c1)OC[C@@H]1OC(O)[C@@H](O)[C@H](O)[C@H]1O (stereo partly specified)	12.7	Dose-dependent effect
40.4	3.28	17.3	O=c1cc(-c2ccc(O)c(O)c2)oc2cc(OC3O[C@@H](CO)[C@H](O)[C@@H](O)[C@@H]3O)cc(O)c12 (stereo partly specified)	7.33	Dose-dependent effect
> 300	> 300	41	O=C1O[C@H]([C@@H](O)CO)C(O)=C1O [ASCORBIC ACID]		
47.8	3.53	18.5	O=c1cc(-c2ccc(O)c(O)c2)oc2cc(OCCOC[C@@H]3OC(O)[C@@H](O)[C@H](O)[C@H]3O)cc(O)c12 (stereo partly specified)	15.7	Dose-dependent effect
19	17.4	14.2	COc1c(-c2ccc(O)c(O)c2)oc2cc(O)cc(O)c2c1=O [3-O-METHYLQUERCETIN]	3.5	
78	12.8	15.6	COc1c(-c2ccc(O)c(O)c2)oc2cc(OCCOC[C@@H]3OC(O)[C@@H](O)[C@H](O)[C@H]3O)cc(O)c2c1=O (stereo partly specified)	58.4	Dose-dependent effect

SMILES	IC50 (Liver) [µM]	IC50 [1] [µM]	IC50 [2] [µM]	IC50 [3] [µM]	Activity (Rattus norvegicus)
O=c1cc(-c2ccc(O)c(O)c2)oc2cc(O)cc(O)c12 [LUTEOLIN]	24.7	8.66	16.2	3.75	
